The test relates to L1210 leukemia ip in BDF1 mice, survival T/C. Put plainly: NCI In Vivo Anticancer Drug Screen. Data for tumor model L1210 Leukemia (intraperitoneal) in B6D2F1 (BDF1) mice. Conditions: endpoint: mean survival time, higher = longer survival. In outline:
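Transplanted-tumor mice were given test agent; controls received vehicle only. Survival readings from the two groups were divided (treated over control).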

[1] abbreviates: dose: 100.0 mg/kg/injection, schedule: Q04DX003 (ip), vehicle: saline with Tween-80.
[2] abbreviates: dose: 200.0 mg/kg/injection, schedule: Q04DX003 (ip), vehicle: saline with Tween-80.
The mark [3] stands for this setting: dose: 400.0 mg/kg/injection, schedule: Q04DX003 (ip), vehicle: saline with Tween-80.
Where [4] appears, read: dose: 100.0 mg/kg/injection, schedule: Q01DX009 (ip), vehicle: Klucel (hydroxypropylcellulose) (HPC).
Setting [5] is: dose: 100.0 mg/kg/injection, schedule: Q04DX003 (ip), vehicle: Klucel (hydroxypropylcellulose) (HPC).
Setting [6] is: dose: 200.0 mg/kg/injection, schedule: Q01DX009 (ip), vehicle: Klucel (hydroxypropylcellulose) (HPC).
[7] abbreviates: dose: 200.0 mg/kg/injection, schedule: Q04DX003 (ip), vehicle: Klucel (hydroxypropylcellulose) (HPC).
Where [8] appears, read: dose: 400.0 mg/kg/injection, schedule: Q01DX009 (ip), vehicle: Klucel (hydroxypropylcellulose) (HPC).
The mark [9] stands for this setting: dose: 400.0 mg/kg/injection, schedule: Q04DX003 (ip), vehicle: Klucel (hydroxypropylcellulose) (HPC).
The mark [10] stands for this setting: dose: 100.0 mg/kg/injection, schedule: Q04DX003 (ip), vehicle: saline.
Setting [11] is: dose: 200.0 mg/kg/injection, schedule: Q04DX003 (ip), vehicle: saline.
[12] abbreviates: dose: 400.0 mg/kg/injection, schedule: Q04DX003 (ip), vehicle: saline.

Structures are written as SMILES. “And” between values parts separate entries of the source, which are not always exact repeats. Equal values may be shown once. Inconclusive results and toxic doses are left out.

On to `O=C(O)C(O)C(=O)O.[NH2-].[NH2-].[Pt+2]`, for which the T/C (dose: 1.0 mg/kg/injection, schedule: Q01DX001 (ip), vehicle: other) is 94 % of control; the T/C (dose: 2.0 mg/kg/injection, schedule: Q01DX001 (ip), vehicle: other) is 95 % of control; the T/C (dose: 2.0 mg/kg/injection, schedule: Q01DX009 (ip), vehicle: other) is 101 % of control; the T/C (dose: 4.0 mg/kg/injection, schedule: Q01DX001 (ip), vehicle: other) is 98 % of control; the T/C (dose: 4.0 mg/kg/injection, schedule: Q01DX009 (ip), vehicle: other) was 101 % of control; the T/C (dose: 8.0 mg/kg/injection, schedule: Q01DX001 (ip), vehicle: other) was 98 % of control. Further, the T/C (dose: 8.0 mg/kg/injection, schedule: Q01DX009 (ip), vehicle: other) was 101 % of control; the T/C (dose: 16.0 mg/kg/injection, schedule: Q01DX001 (ip), vehicle: other) is 101 % of control; the T/C (dose: 25.0 mg/kg/injection, schedule: Q04DX003 (ip), vehicle: saline) is 112 % of control; the T/C (dose: 32.0 mg/kg/injection, schedule: Q01DX001 (ip), vehicle: other) was 109 % of control; the T/C (dose: 32.0 mg/kg/injection, schedule: Q01DX009 (ip), vehicle: other) was 187 % of control; the T/C (dose: 40.0 mg/kg/injection, schedule: Q01DX001 (ip), vehicle: other) was 122 % of control. In addition, the T/C was 158 % of control (dose: 60.0 mg/kg/injection, schedule: Q01DX001 (ip), vehicle: other); 168 % of control (dose: 80.0 mg/kg/injection, schedule: Q01DX001 (ip), vehicle: other); 114 % of control (dose: 100.0 mg/kg/injection, schedule: Q01DX001 (ip), vehicle: other); 121 % of control (dose: 128.0 mg/kg/injection, schedule: Q01DX001 (ip), vehicle: other).

Regarding `CCN(CC)CCSc1nc2ccccc2[nH]1`, the T/C is 104 % of control (dose: 55.0 mg/kg/injection, schedule: Q01DX Z (ip), vehicle: saline); 91 % of control (dose: 83.0 mg/kg/injection, schedule: Q01DX Z (ip), vehicle: saline); 94 % of control (dose: 125.0 mg/kg/injection, schedule: Q01DX Z (ip), vehicle: saline).

As to `CCCCOP(=O)(NNP(=O)(OCCCC)OCCCC)OCCCC`, the T/C is, setting by setting: (dose: 100.0 mg/kg/injection, schedule: Q04DX002 (ip), vehicle: saline with Tween-80) 108 % of control; (dose: 200.0 mg/kg/injection, schedule: Q04DX002 (ip), vehicle: saline with Tween-80) 116 % of control; (dose: 400.0 mg/kg/injection, schedule: Q04DX002 (ip), vehicle: saline with Tween-80) 105 % of control.

As to `N#CC(C#N)=C/C=C/C=C/c1c(Cl)cccc1Cl`, the T/C runs as follows: under setting [1], 92 % of control; under setting [2], 103 % of control; under setting [3], 105 % of control.

In the case of `Cc1cc(C)c(NC(=S)NC(=O)c2cccc3ccccc23)c(C)c1`, the T/C is 98 % of control under setting [4]; 103 % of control under setting [5]; 106 % of control under setting [6]; 97 % of control under setting [7]; 95 % of control under setting [8]; 103 % of control under setting [9].

With `O=C(Nc1ccccc1C(F)(F)F)OCCSc1ccc(Cl)cc1`, the T/C reads like this: (dose: 100.0 mg/kg/injection, schedule: Q01DX009 (ip), vehicle: saline with Tween-80) 95 % of control; (dose: 200.0 mg/kg/injection, schedule: Q01DX009 (ip), vehicle: saline with Tween-80) 95 % of control; (dose: 400.0 mg/kg/injection, schedule: Q01DX009 (ip), vehicle: saline with Tween-80) 93 % of control.

For the compound `CNC(=O)CO`, the T/C is, setting by setting: under setting [10], 98 % of control; under setting [11], 103 % of control; under setting [12], 92 % of control.

With `CCCCCCCNc1ccc(S(=O)(=O)c2ccc(NCCCCCCC)c([N+](=O)[O-])c2)cc1[N+](=O)[O-]`, the T/C (dose: 25.0 mg/kg/injection, schedule: Q01DX009 (ip), vehicle: DMSO) was 94 % of control; the T/C (dose: 50.0 mg/kg/injection, schedule: Q01DX009 (ip), vehicle: DMSO) was 98 % of control; the T/C (dose: 100.0 mg/kg/injection, schedule: Q01DX005 (ip), vehicle: DMSO) was 90 % of control; the T/C (dose: 100.0 mg/kg/injection, schedule: Q01DX009 (ip), vehicle: DMSO) is 94 % of control and 98 % of control; the T/C (dose: 100.0 mg/kg/injection, schedule: Q04DX002 (ip), vehicle: DMSO) is 100 % of control; the T/C (dose: 200.0 mg/kg/injection, schedule: Q01DX009 (ip), vehicle: DMSO) is 101 % of control. Also, the T/C runs as follows: (dose: 200.0 mg/kg/injection, schedule: Q04DX002 (ip), vehicle: DMSO) 88 % of control; (dose: 400.0 mg/kg/injection, schedule: Q01DX005 (ip), vehicle: DMSO) 90 % of control; (dose: 400.0 mg/kg/injection, schedule: Q01DX009 (ip), vehicle: DMSO) 100 % of control; (dose: 400.0 mg/kg/injection, schedule: Q04DX002 (ip), vehicle: DMSO) 96 % of control.

`CSc1ncnc2c1ncn2NC(=O)C1CC(=O)N(C)C1` (stereo not given): the T/C (dose: 100.0 mg/kg/injection, schedule: Q01DX001 (ip), vehicle: saline) was 107 % of control; the T/C (dose: 200.0 mg/kg/injection, schedule: Q01DX001 (ip), vehicle: saline) was 103 % of control; the T/C (dose: 400.0 mg/kg/injection, schedule: Q01DX001 (ip), vehicle: saline) was 100 % of control.

As to `O=C(COc1ccc(Cl)c(Cl)c1)Nc1ccc[n+](Cc2ccc([N+](=O)[O-])cc2)c1`, the T/C under setting [10] was 95 % of control, the T/C under setting [11] is 95 % of control and the T/C under setting [12] was 104 % of control.

As to `CC(=O)/C(N=Nc1ccc(S(=O)(=O)c2ccc(N=N/C(C(C)=O)=C(/C)O)cc2)cc1)=C(\C)O`, the T/C reads like this: under setting [1], 100 % of control; under setting [2], 93 % of control; under setting [3], 96 % of control.

As for `O=C1C(Cl)=C(NCc2ccco2)C(=O)c2ccccc21`, the T/C is, setting by setting: (dose: 77.0 mg/kg/injection, schedule: Q01DX Z (ip), vehicle: methylcellulose (MC)) 89 % of control; (dose: 116.0 mg/kg/injection, schedule: Q01DX Z (ip), vehicle: methylcellulose (MC)) 87 % of control; (dose: 175.0 mg/kg/injection, schedule: Q01DX Z (ip), vehicle: methylcellulose (MC)) 95 % of control.

`CC(=O)CCC(=O)CCC(=O)O`: the T/C is 92 % of control (dose: 100.0 mg/kg/injection, schedule: Q04DX002 (ip), vehicle: saline); 100 % of control (dose: 200.0 mg/kg/injection, schedule: Q04DX002 (ip), vehicle: saline); 95 % of control (dose: 400.0 mg/kg/injection, schedule: Q04DX002 (ip), vehicle: saline).

For the compound `CCC(/C=C/C(C)C1CCC2C3CC=C4CC(O)CCC4(C)C3CCC12C)C(C)C` (stereo not given) (tested in a mixture with another compound), the T/C is, setting by setting: (dose: 100.0 mg/kg/injection, schedule: Q01DX001 (ip), vehicle: water) 98 % of control; under setting [1], 89 % of control; under setting [10], 103 % of control; (dose: 200.0 mg/kg/injection, schedule: Q01DX001 (ip), vehicle: water) 105 % of control and 94 % of control; under setting [11], 91 % of control; under setting [12], 91 % of control.

Regarding `COc1ccc(C(C)=O)cc1N`, the T/C by setting is: under setting [4], 98 % of control; under setting [5], 94 % of control; under setting [6], 104 % of control; under setting [7], 93 % of control; under setting [8], 116 % of control; under setting [9], 94 % of control.

`O=C(O)CSc1cc(-c2ccc(Cl)cc2)s[s+]1`: the T/C by setting is: (dose: 3.12 mg/kg/injection, schedule: Q01DX009 (ip), vehicle: water) 98 % of control; (dose: 6.25 mg/kg/injection, schedule: Q01DX009 (ip), vehicle: water) 97 % of control; (dose: 12.5 mg/kg/injection, schedule: Q01DX009 (ip), vehicle: water) 96 % of control; (dose: 12.5 mg/kg/injection, schedule: Q04DX003 (ip), vehicle: water) 94 % of control; (dose: 25.0 mg/kg/injection, schedule: Q04DX003 (ip), vehicle: water) 93 % of control; (dose: 50.0 mg/kg/injection, schedule: Q04DX003 (ip), vehicle: water) 86 % of control.

For the origin of these results see PubChem BioAssay AID248 (DTP/NCI, 2004).
